Publication PMC9506414, “Novel 2,6,9-Trisubstituted Purines as Potent CDK Inhibitors Alleviating Trastuzumab-Resistance of HER2-Positive Breast Cancers” (Pharmaceuticals, 2022)

How the values were obtained:
Assay in all cases: Kinome-wide inhibition profiling
Format in all cases: biochemical
[1] = target: T1, ICK (Homo sapiens, UniProt Q9UPZ9)
T1 construct: purchased Reaction Biology Corp
Protocol: (§1) In vitro CDK12/cyclinK assays for all compounds and in vitro kinome-wide inhibition profiling of 30d at 10 μM were performed by a CRO company (Reaction Biology Corp., San Diego, CA, USA).

[2] = target: T2, PKN3 (Homo sapiens, UniProt Q6P5Z2)
T2 construct: purchased Reaction Biology Corp
Protocol: as §1

[3] = target: T3, INSR (Homo sapiens, UniProt P06213)
T3 construct: purchased Reaction Biology Corp
Protocol: as §1

[4] = target: T4, BMPR1A (Homo sapiens, UniProt P36894)
T4 construct: purchased Reaction Biology Corp
Protocol: as §1

[5] = target: T5, MAP4K3 (Homo sapiens, UniProt Q8IVH8)
T5 construct: purchased Reaction Biology Corp
Protocol: as §1

[6] = target: T6, TGFBR1 (Homo sapiens, UniProt P36897)
T6 construct: purchased Reaction Biology Corp
Protocol: as §1

[7] = target: T7, IKK-alpha (Homo sapiens, UniProt O15111)
T7 construct: purchased Reaction Biology Corp
Protocol: as §1

[8] = target: T8, SGK2 (Homo sapiens, UniProt Q9HBY8)
T8 construct: purchased Reaction Biology Corp
Protocol: as §1

[9] = target: T9, LIMK2 (Homo sapiens, UniProt P53671)
T9 construct: purchased Reaction Biology Corp
Protocol: as §1

[10] = target: T10, TSSK1B (Homo sapiens, UniProt Q9BXA7)
T10 construct: purchased Reaction Biology Corp
Protocol: as §1

[11] = target: T11, FGFR3 (Homo sapiens, UniProt P22607)
T11 construct: purchased Reaction Biology Corp
Protocol: as §1

[12] = target: T12, Haspin (Homo sapiens, UniProt Q8TF76)
T12 construct: purchased Reaction Biology Corp
Protocol: as §1

[13] = target: T13, PRKD3 (Homo sapiens, UniProt O94806)
T13 construct: purchased Reaction Biology Corp
Protocol: as §1

[14] = target: T14, IKK-epsilon (Homo sapiens, UniProt Q14164)
T14 construct: purchased Reaction Biology Corp
Protocol: as §1

[15] = target: T15, RSK1 (Homo sapiens, UniProt Q15418)
T15 construct: purchased Reaction Biology Corp
Protocol: as §1

[16] = target: T16, YSK1 (Homo sapiens, UniProt O00506)
T16 construct: purchased Reaction Biology Corp
Protocol: as §1

[17] = target: T17, MAP4K4 (Homo sapiens, UniProt O95819)
T17 construct: purchased Reaction Biology Corp
Protocol: as §1

[18] = target: T18, MKK4 (Homo sapiens, UniProt P45985)
T18 construct: purchased Reaction Biology Corp
Protocol: as §1

[19] = target: T19, PRKD2 (Homo sapiens, UniProt Q9BZL6)
T19 construct: purchased Reaction Biology Corp
Protocol: as §1

[20] = target: T20, CSNK1G2 (Homo sapiens, UniProt P78368)
T20 construct: purchased Reaction Biology Corp
T20 sequence (P78368 whole entry): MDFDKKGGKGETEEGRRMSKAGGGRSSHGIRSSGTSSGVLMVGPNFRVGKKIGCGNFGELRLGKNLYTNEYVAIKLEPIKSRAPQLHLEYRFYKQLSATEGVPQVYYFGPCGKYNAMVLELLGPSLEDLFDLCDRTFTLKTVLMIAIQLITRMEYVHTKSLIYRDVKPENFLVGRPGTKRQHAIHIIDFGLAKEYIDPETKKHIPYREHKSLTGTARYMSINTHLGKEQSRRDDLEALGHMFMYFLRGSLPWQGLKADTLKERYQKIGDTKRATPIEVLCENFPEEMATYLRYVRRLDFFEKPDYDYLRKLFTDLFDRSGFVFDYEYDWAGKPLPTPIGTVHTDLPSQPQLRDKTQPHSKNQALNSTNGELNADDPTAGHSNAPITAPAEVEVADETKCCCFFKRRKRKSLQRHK
Protocol: as §1

[21] = target: T21, AKT1 (Homo sapiens, UniProt P31749)
T21 construct: purchased Reaction Biology Corp
T21 sequence (P31749 whole entry): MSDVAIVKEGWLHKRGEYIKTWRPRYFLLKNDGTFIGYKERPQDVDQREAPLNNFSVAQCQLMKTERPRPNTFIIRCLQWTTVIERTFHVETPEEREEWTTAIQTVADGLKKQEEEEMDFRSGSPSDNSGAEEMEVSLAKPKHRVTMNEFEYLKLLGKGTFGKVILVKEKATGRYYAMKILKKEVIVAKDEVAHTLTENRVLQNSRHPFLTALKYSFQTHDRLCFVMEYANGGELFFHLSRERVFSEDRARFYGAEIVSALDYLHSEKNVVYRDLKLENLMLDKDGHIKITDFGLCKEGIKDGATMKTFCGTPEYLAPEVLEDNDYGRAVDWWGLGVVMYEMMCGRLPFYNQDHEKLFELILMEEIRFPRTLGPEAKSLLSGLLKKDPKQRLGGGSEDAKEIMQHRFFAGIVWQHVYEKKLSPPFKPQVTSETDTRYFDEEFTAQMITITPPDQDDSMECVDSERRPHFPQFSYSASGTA
Protocol: as §1

[22] = target: T22, PAK1 (Homo sapiens, UniProt Q13153)
T22 construct: purchased Reaction Biology Corp
Protocol: as §1

[23] = target: T23, PKCb2 (Homo sapiens, UniProt P05771)
T23 construct: purchased Reaction Biology Corp
Protocol: as §1

[24] = target: T24, GRK3 (Homo sapiens, UniProt P35626)
T24 construct: purchased Reaction Biology Corp
Protocol: as §1

[25] = target: T25, CDK5/p35 (Homo sapiens, UniProt Q00535)
T25 construct: purchased Reaction Biology Corp
T25 sequence (Q00535 whole entry): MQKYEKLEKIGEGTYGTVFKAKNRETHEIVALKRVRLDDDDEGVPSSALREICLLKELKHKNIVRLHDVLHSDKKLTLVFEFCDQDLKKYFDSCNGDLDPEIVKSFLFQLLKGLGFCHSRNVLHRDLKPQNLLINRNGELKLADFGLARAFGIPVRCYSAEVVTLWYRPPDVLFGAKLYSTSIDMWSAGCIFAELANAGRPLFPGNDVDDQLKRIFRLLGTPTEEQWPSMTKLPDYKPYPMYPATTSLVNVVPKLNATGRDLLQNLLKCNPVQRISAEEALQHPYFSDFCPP
T25 sequence (Q15078 whole entry partner): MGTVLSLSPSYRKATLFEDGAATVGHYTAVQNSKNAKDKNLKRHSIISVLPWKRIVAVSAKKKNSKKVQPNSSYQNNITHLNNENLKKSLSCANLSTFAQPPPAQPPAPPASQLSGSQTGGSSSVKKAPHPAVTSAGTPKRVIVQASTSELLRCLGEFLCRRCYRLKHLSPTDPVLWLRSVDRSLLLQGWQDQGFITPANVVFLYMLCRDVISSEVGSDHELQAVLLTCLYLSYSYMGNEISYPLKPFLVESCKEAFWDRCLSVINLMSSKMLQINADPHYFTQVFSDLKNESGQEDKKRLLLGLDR
Protocol: as §1

[26] = target: T26, PAK2 (Homo sapiens, UniProt Q13177)
T26 construct: purchased Reaction Biology Corp
Protocol: as §1

[27] = target: T27, NEK11 (Homo sapiens, UniProt Q8NG66)
T27 construct: purchased Reaction Biology Corp
Protocol: as §1

[28] = target: T28, KSR1 (Homo sapiens, UniProt Q8IVT5)
T28 construct: purchased Reaction Biology Corp
Protocol: as §1

[29] = target: T29, RET (Homo sapiens, UniProt P07949)
T29 construct: purchased Reaction Biology Corp
Protocol: as §1

[30] = target: T30, TESK1 (Homo sapiens, UniProt Q15569)
T30 construct: purchased Reaction Biology Corp
Protocol: as §1

[31] = target: T31, LKB1 (Homo sapiens, UniProt Q15831)
T31 construct: purchased Reaction Biology Corp
T31 sequence (Q15831 whole entry): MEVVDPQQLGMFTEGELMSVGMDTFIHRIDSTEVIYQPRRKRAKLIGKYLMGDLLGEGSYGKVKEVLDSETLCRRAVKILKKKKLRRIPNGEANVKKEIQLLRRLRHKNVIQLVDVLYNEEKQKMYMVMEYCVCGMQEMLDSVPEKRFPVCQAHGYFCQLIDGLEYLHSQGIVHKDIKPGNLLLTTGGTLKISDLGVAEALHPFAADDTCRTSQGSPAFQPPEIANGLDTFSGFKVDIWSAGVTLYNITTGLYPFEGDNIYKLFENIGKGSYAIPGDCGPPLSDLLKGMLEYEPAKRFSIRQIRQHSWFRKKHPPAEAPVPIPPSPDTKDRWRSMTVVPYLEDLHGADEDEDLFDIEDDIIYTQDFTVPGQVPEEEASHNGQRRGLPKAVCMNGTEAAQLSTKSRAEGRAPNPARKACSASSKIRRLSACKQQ
T31 sequence (Q7RTN6 whole entry partner): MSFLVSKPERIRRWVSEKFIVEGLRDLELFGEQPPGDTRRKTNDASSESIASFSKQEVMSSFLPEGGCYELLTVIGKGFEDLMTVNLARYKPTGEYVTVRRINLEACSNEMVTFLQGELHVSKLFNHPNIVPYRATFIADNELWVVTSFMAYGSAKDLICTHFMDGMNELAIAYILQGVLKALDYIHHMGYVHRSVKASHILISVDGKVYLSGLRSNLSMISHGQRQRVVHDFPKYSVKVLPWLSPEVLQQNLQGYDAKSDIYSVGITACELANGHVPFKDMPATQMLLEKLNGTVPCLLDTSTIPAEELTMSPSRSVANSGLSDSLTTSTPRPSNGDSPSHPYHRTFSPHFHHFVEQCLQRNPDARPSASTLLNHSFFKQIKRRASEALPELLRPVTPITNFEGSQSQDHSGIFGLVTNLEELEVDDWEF
T31 sequence (Q9Y376 whole entry partner): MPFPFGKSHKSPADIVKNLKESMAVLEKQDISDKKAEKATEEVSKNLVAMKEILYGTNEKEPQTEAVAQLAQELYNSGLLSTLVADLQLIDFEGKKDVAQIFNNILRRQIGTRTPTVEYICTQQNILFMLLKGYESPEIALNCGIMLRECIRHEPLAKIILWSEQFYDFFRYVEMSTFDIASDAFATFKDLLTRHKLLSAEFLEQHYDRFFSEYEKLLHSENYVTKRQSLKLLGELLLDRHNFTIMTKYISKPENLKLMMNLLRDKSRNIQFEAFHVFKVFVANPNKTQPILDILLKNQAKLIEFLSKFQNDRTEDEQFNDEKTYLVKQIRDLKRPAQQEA
Protocol: as §1

[32] = target: T32, PDPK1 (Homo sapiens, UniProt O15530)
T32 construct: purchased Reaction Biology Corp
T32 sequence (O15530 whole entry): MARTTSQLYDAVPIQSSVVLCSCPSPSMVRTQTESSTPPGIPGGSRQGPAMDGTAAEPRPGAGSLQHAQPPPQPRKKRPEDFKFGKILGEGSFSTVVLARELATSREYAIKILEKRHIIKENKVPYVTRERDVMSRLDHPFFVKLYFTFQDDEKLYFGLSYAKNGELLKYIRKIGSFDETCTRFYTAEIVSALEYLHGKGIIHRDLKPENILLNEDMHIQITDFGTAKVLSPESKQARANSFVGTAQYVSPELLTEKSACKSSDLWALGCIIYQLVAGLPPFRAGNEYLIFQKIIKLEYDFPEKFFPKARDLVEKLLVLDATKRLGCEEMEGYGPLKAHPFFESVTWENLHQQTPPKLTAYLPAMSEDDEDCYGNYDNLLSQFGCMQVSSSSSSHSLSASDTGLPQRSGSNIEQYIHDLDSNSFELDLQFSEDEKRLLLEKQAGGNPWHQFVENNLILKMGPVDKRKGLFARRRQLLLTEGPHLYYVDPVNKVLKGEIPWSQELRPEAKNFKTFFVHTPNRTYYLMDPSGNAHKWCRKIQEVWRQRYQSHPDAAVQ
Protocol: as §1

[33] = target: T33, TAOK3 (Homo sapiens, UniProt Q9H2K8)
T33 construct: purchased Reaction Biology Corp
Protocol: as §1

[34] = target: T34, BRSK1 (Homo sapiens, UniProt Q8TDC3)
T34 construct: purchased Reaction Biology Corp
Protocol: as §1

[35] = target: T35, PKN2 (Homo sapiens, UniProt Q16513)
T35 construct: purchased Reaction Biology Corp
T35 sequence (Q16513 whole entry): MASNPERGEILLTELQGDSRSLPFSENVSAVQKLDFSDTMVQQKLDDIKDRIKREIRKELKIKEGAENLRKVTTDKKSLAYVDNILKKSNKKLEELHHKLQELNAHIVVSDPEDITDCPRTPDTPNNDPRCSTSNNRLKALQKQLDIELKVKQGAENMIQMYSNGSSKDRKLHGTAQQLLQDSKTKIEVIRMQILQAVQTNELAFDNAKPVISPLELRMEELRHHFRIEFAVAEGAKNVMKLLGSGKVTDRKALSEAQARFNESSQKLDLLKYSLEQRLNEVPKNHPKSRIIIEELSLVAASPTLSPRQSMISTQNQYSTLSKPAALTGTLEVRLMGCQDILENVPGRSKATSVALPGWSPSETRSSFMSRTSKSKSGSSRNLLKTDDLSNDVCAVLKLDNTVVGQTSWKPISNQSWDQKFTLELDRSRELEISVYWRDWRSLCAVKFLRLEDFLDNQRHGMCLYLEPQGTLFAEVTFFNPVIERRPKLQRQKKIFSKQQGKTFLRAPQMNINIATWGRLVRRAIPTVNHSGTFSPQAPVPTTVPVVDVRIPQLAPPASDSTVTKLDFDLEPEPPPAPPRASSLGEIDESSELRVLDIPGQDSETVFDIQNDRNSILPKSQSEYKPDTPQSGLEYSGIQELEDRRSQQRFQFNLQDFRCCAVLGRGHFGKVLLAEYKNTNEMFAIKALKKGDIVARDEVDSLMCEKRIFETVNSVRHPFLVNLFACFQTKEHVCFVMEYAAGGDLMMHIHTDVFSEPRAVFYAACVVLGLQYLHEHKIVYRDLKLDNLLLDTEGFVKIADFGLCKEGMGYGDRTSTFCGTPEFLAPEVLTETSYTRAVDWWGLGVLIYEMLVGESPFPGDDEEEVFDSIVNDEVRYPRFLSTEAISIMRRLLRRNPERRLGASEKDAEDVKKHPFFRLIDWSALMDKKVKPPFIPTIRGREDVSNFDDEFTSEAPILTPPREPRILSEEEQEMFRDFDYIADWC
Protocol: as §1

[36] = target: T36, TTBK2 (Homo sapiens, UniProt Q6IQ55)
T36 construct: purchased Reaction Biology Corp
Protocol: as §1

[37] = target: T37, MLCK (Homo sapiens, UniProt Q15746)
T37 construct: purchased Reaction Biology Corp
Protocol: as §1

[38] = target: T38, JNK2 (Homo sapiens, UniProt P45984)
T38 construct: purchased Reaction Biology Corp
Protocol: as §1

[39] = target: T39, GRK4 (Homo sapiens, UniProt P32298)
T39 construct: purchased Reaction Biology Corp
Protocol: as §1

[40] = target: T40, PHKg2 (Homo sapiens, UniProt P15735)
T40 construct: purchased Reaction Biology Corp
Protocol: as §1

[41] = target: T41, P38-alpha (Homo sapiens, UniProt Q16539)
T41 construct: purchased Reaction Biology Corp
Protocol: as §1

[42] = target: T42, PFTK1 (Homo sapiens, UniProt O94921)
T42 construct: purchased Reaction Biology Corp
Protocol: as §1

[43] = target: T43, FLT4 (Homo sapiens, UniProt P35916)
T43 construct: purchased Reaction Biology Corp
Protocol: as §1

[44] = target: T44, BTK (Homo sapiens, UniProt Q06187)
T44 construct: purchased Reaction Biology Corp
Protocol: as §1

T1 sequence (Q9UPZ9 whole entry): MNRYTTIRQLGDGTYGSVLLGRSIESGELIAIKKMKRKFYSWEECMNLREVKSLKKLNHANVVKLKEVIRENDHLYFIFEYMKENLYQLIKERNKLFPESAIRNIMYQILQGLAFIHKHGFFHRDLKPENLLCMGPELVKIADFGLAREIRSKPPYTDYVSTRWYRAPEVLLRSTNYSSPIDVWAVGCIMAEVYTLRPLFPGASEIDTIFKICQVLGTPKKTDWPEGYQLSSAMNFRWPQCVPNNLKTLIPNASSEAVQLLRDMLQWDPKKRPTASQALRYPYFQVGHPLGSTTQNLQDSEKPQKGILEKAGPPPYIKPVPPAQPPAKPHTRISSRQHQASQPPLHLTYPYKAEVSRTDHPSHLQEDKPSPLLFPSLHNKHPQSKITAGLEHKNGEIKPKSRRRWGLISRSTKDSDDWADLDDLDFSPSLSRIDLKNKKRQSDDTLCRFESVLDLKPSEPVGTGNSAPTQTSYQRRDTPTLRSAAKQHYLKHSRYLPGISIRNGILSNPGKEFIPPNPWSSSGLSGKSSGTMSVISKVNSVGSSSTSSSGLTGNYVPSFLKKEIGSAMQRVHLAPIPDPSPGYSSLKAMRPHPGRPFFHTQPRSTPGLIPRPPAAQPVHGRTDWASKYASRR

CCn1cnc2c(NCc3ccc(-c4ccccn4)nc3)nc(-c3ccc(N)nc3)nc21 [Compound 30d, N-([2,2′-Bipyridin]-5-ylmethyl)-2-(6-aminopyridin-3-yl)-9-ethyl-9H-purin-6-amine] gave a remaining activity at 10 µM [1] of 39.6%, a remaining activity at 10 µM [2] of 81.6% and a remaining activity at 10 µM [3] of 65.1%. The remaining activity at 10 µM [4] was 126%, the remaining activity at 10 µM [5] was 49.6% and the remaining activity at 10 µM [6] was 112%. The remaining activity at 10 µM [7] was 71.5%, the remaining activity at 10 µM [8] was 84.7% and the remaining activity at 10 µM [9] was 76.5%. For the same compound, the remaining activity at 10 µM [10] was 38%, the remaining activity at 10 µM [11] was 30.6% and the remaining activity at 10 µM [12] was 79.4%. It also gave a remaining activity at 10 µM [13] of 54.3%, a remaining activity at 10 µM [14] of 80.1% and a remaining activity at 10 µM [15] of 59.1%. It also gave a remaining activity at 10 µM [16] of 23.1%, a remaining activity at 10 µM [17] of 103% and a remaining activity at 10 µM [18] of 96.4%. The remaining activity at 10 µM [19] was 72.3%, the remaining activity at 10 µM [20] was 27% and the remaining activity at 10 µM [21] was 94.9%. The remaining activity at 10 µM [22] was 24.5%, the remaining activity at 10 µM [23] was 39.6% and the remaining activity at 10 µM [24] was 102%. The inhibition at 10 µM [25] was > 95%, the remaining activity at 10 µM [25] was 0.7% and the remaining activity at 10 µM [26] was 46.7%. The remaining activity at 10 µM [27] was 94.3%, the remaining activity at 10 µM [28] was 100% and the remaining activity at 10 µM [29] was 79.4%. For the same compound, the remaining activity at 10 µM [30] was 93.1%, the inhibition at 10 µM [31] was > 95% and the remaining activity at 10 µM [31] was 0.1%. It also gave a remaining activity at 10 µM [32] of 105%, a remaining activity at 10 µM [33] of 23.1% and a remaining activity at 10 µM [34] of 92.8%. It also gave a remaining activity at 10 µM [35] of 85.8%, a remaining activity at 10 µM [36] of 97.3% and a remaining activity at 10 µM [37] of 63.4%. For the same compound, the remaining activity at 10 µM [38] was 61.7%, the remaining activity at 10 µM [39] was 88.3% and the remaining activity at 10 µM [40] was 56.9%. It also gave a remaining activity at 10 µM [41] of 84.2%, a remaining activity at 10 µM [42] of 14% and a remaining activity at 10 µM [43] of 10%. For the same compound, the remaining activity at 10 µM [44] was 103%.
